Experimental data taken from ChEMBL document CHEMBL5154789 (J Med Chem, 2022).
Calls of active or inactive are those of the source. No cut-off for these calls is given here.

Key:
[1] = target: Fibroblast growth factor receptor 1 (Homo sapiens, UniProt P11362)
Description: Inhibition of FGFR1 (unknown orgin) using Tyr 04 peptide as substrate incubated for 1 hr in presence of 25 uM ATP by FRET based Z'-LYTE assay

[2] = target: Fibroblast growth factor receptor 2 (Homo sapiens, UniProt P21802)
Description: Inhibition of FGFR2 (unknown orgin) using Tyr 04 peptide as substrate incubated for 1 hr in presence of 5 uM ATP by FRET based Z'-LYTE assay

[3] = target: Fibroblast growth factor receptor 3 (Homo sapiens, UniProt P22607)
Description: Inhibition of FGFR3 (unknown orgin) using Tyr 04 peptide as substrate incubated for 1 hr in presence of 75 uM ATP by FRET based Z'-LYTE assay

BaF3 [4] = assay: cells; conditions: Mus musculus, BaF3, 72 h
MDA-MB-453 = assay: cells; conditions: Homo sapiens, MDA-MB-453, 120 h
Description: Antiproliferative activity against human MDA-MB-453 cells assessed as inhibition of cell growth incubated for 5 days by SRB assay

Hep 3B2 = assay: cells; conditions: Homo sapiens, Hep3B, 120 h
Description: Antiproliferative activity against human Hep3B cells assessed as inhibition of cell growth incubated for 5 days by SRB assay

NCI-H1299 = assay: cells; conditions: Homo sapiens, NCI-H1299, 120 h
Description: Antiproliferative activity against human NCI-H1299 cells assessed as inhibition of cell growth incubated for 5 days by SRB assay

[5] = target: Fibroblast growth factor receptor 4 (Homo sapiens, UniProt P22455); assay: Inhibition of N-terminal 6His-tagged FGFR4 (unknown orgin) (445 to 753 residues) expressed in Rosetta (NEB) cells using Tyr 04 peptide as substrate incubated for 1 hr in presence of 150 uM ATP by FRET based Z'-LYTE assay
Sequence of Fibroblast growth factor receptor 4 (P22455 whole entry, the tested form may be a part): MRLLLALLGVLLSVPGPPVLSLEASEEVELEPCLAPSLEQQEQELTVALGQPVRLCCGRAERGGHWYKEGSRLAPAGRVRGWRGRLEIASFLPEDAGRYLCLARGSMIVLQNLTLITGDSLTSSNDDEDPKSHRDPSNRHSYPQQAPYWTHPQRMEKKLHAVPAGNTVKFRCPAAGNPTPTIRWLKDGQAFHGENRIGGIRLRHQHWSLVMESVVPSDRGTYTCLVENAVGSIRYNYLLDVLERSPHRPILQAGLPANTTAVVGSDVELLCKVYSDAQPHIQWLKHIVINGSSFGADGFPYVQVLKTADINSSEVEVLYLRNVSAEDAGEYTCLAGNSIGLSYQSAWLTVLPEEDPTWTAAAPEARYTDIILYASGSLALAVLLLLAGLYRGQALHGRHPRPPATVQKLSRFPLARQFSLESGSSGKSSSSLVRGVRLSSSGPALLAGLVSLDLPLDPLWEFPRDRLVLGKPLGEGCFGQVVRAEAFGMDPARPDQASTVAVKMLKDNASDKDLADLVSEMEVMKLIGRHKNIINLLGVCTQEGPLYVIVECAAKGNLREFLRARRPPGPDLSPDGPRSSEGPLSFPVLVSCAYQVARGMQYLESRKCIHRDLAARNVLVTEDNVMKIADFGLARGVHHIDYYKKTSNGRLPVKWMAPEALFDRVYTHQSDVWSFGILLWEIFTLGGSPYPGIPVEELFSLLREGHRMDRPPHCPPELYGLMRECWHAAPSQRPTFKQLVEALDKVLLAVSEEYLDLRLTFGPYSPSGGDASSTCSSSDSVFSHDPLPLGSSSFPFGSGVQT

BaF3 [6] = assay: Antiproliferative activity against mouse BAF3 cells expressing FGFR4 V550M mutant assessed as inhibition of cell growth incubated for 72 hrs by CCK8 assay; assay type: functional, cell-based; conditions: BaF3, 72 h
[7] = Antiproliferative activity against human JHH7 cells assessed as inhibition of cell growth incubated for 5 days by SRB assay; assay type: functional, cell-based; conditions: JHH7, 120 h
Huh-7 [8] = assay: Antiproliferative activity against human Huh-7 cells assessed as inhibition of cell growth incubated for 5 days by SRB assay; assay type: functional, cell-based; conditions: Huh-7, 120 h
BaF3 [9] = assay: Antiproliferative activity against mouse BAF3 cells assessed as inhibition of cell growth incubated for 72 hrs by CCK8 assay; assay type: functional, cell-based; conditions: BaF3, 72 h
[10] = target: Fibroblast growth factor receptor 4 (Mus musculus) (UniProt Q03142); assay: Inhibition of wild type FGFR4 phosphorylation in mouse BAF3 cells at 30 nM incubated for 6 hrs by Western blot analysis; assay type: cell-based
Sequence of Fibroblast growth factor receptor 4 (Mus musculus) (Q03142 17-799 limits assumed): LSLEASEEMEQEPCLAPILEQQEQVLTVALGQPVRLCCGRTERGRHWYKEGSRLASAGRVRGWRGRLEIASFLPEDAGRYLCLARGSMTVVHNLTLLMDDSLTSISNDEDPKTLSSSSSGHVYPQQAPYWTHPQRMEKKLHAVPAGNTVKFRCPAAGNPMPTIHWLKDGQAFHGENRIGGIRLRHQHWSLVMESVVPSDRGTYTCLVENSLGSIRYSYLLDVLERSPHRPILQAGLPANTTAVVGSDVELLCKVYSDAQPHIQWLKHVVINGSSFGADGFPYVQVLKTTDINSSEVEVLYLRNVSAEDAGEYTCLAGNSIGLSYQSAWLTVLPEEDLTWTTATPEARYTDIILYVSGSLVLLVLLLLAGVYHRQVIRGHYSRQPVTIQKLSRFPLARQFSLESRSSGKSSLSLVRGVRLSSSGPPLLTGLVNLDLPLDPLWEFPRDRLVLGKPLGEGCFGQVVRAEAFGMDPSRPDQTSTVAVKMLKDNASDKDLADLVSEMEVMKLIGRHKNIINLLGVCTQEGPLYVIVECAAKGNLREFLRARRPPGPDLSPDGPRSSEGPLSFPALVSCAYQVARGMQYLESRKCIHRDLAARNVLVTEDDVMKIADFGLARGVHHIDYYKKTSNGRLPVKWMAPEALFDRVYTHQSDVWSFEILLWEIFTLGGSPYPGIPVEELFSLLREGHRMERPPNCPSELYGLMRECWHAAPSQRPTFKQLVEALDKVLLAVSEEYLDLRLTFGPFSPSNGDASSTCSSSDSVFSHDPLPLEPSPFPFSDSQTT

[11] = target: Fibroblast growth factor receptor 4 (Mus musculus) (UniProt Q03142); assay: Inhibition of wild type FGFR4 phosphorylation in mouse BAF3 cells assessed as reduction in FRS2 level at 3 to 90 nM incubated for 6 hrs by Western blot analysis; assay type: cell-based; conditions: dose 3-90 nM
[12] = target: Fibroblast growth factor receptor 4 (Mus musculus) (UniProt Q03142); assay: Inhibition of wild type FGFR4 phosphorylation in mouse BAF3 cells assessed as reduction in MAPK level at 3 to 90 nM incubated for 6 hrs by Western blot analysis; assay type: cell-based; conditions: dose 3-90 nM
BaF3 [13] = assay: Inhibition of FGFR4 V550L mutant signalling in mouse BAF3 cells at 3 to 90 nM incubated for 6 hrs by Western blot analysis; assay type: cell-based; conditions: dose 3-90 nM
Huh-7 [14] = assay: Antitumor activity against human Huh-7 cells xenografted in ip dosed BALB/c nude mouse assessed as tumor growth inhibition administered twice daily for 17 continuous days and measured every 2 days; assay type: functional, organism-based; conditions: time 17.0 day, DDE = dose-dependent effect
Huh-7 [15] = assay: Antitumor activity against human Huh-7 cells xenografted in BALB/c nude mouse assessed as tumor growth inhibition at 20 mg/kg, ip administered twice daily for 17 continuous days and measured every 2 days; assay type: functional; conditions: Huh-7, 408 h, time 17 day, read-out: TGI
Huh-7 [16] = assay: Antitumor activity against human Huh-7 cells xenografted in BALB/c nude mouse assessed as tumor growth inhibition at 40 mg/kg, ip administered twice daily for 17 continuous days and measured every 2 days; assay type: functional; conditions: Huh-7, 408 h, time 17 day, read-out: TGI
[17] = Toxicity in BALB/c nude mouse xenografted with human Huh-7 cells assessed as loss of body weight at 20 to 40 mg/kg, […] administered twice daily for 17 days and measured every 2 days; assay type: organism-based; conditions: in vivo, 408 h, dose 20-40 mg/kg, time 17 day
BaF3 [18] = assay: cells; conditions: Mus musculus, BaF3, 72 h; remark: listed apart in the source

Sequence of Fibroblast growth factor receptor 2 (P21802 whole entry): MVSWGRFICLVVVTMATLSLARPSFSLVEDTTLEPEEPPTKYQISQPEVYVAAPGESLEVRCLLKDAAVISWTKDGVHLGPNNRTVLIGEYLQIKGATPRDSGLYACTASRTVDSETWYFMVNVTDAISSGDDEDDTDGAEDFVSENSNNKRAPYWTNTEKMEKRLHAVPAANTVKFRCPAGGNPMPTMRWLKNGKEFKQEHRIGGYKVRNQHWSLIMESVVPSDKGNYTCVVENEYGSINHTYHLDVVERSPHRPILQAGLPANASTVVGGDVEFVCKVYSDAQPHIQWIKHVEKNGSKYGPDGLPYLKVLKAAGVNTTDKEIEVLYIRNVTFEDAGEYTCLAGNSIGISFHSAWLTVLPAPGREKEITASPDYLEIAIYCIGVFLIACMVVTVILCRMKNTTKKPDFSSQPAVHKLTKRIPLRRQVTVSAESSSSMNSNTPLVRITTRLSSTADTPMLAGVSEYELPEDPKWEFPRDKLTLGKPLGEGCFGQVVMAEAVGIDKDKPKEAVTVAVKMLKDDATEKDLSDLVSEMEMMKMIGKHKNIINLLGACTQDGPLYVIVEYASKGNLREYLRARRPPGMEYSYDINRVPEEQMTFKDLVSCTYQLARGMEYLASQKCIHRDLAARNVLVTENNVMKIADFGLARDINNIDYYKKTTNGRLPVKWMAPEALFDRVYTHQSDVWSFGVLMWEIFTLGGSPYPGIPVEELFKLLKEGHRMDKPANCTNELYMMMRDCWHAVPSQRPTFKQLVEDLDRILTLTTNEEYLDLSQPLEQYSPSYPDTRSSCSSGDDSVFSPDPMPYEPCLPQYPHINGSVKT
Sequence of Fibroblast growth factor receptor 1 (P11362 whole entry): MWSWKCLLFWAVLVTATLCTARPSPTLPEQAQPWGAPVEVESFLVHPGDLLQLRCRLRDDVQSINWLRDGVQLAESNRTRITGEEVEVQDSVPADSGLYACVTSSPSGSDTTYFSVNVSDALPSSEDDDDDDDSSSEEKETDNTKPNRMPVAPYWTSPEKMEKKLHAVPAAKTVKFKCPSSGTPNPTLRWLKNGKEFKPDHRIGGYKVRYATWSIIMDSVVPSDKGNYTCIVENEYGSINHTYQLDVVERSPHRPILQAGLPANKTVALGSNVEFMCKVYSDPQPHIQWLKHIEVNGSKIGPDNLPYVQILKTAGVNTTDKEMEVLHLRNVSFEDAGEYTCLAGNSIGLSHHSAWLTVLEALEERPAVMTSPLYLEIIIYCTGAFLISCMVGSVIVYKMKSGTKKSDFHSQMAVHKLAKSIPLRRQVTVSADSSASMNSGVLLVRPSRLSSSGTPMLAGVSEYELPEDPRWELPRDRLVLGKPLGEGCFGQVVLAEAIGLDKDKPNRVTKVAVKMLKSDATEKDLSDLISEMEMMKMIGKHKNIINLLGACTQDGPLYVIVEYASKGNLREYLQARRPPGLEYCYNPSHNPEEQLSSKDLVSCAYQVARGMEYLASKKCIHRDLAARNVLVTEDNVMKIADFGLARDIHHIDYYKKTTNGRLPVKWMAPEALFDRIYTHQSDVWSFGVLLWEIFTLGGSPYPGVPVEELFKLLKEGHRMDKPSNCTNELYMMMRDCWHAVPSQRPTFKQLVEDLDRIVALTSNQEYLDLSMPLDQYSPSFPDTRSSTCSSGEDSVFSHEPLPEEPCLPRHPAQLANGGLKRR
Sequence of Fibroblast growth factor receptor 3 (P22607 whole entry): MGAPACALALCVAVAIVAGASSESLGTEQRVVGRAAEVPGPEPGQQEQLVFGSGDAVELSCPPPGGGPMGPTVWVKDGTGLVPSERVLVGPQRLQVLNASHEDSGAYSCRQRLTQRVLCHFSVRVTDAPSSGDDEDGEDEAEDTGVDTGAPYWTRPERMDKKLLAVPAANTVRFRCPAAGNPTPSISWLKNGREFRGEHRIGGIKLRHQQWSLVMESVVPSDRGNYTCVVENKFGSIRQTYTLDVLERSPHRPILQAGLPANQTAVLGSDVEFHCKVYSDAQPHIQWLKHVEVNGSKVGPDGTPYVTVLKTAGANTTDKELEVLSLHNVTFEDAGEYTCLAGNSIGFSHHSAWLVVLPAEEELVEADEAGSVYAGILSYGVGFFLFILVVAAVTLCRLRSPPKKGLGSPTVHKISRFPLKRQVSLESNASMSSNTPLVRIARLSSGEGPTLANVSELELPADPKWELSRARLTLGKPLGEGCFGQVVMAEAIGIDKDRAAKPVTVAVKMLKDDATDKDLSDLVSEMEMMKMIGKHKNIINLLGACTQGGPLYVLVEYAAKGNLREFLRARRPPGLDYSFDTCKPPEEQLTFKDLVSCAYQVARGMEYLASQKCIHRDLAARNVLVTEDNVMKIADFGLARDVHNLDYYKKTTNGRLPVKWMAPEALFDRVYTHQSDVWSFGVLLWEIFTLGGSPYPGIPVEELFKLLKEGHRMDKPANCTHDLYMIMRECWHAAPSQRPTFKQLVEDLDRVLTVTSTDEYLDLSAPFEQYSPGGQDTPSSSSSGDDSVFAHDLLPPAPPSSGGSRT

SMILES	IC50 [2] [nM]	IC50 [3] [nM]	IC50 (BaF3 [4]) [nM]	IC50 (MDA-MB-453) [nM]	IC50 (Hep 3B2) [nM]	IC50 (NCI-H1299) [nM]	further results
C=CC(=O)Nc1cc(N2CCN(C3COC3)CC2)cc(F)c1Nc1n[nH]c2ccc(O[C@H](C)c3c(Cl)cncc3Cl)cc12	> 10000	> 10000	1.9	14	51	3000	IC50 [1]: > 10000 nM
C=CC(=O)N[C@H]1CCCC[C@H]1Nc1n[nH]c2ccc(O[C@H](C)c3c(Cl)cncc3Cl)cc12	> 10000	> 10000	–	–	–	–	IC50 [5]: > 10000 nM
C=CC(=O)Nc1cccc(CC)c1Nc1n[nH]c2ccc(O[C@H](C)c3c(Cl)cncc3Cl)cc12	> 10000	> 10000	> 2000	7590	16300	4580	IC50 [5]: > 10000 nM
C=CC(=O)N[C@H]1CCOC[C@H]1Nc1n[nH]c2ccc(O[C@H](C)c3c(Cl)cncc3Cl)cc12	> 10000	> 10000	–	–	–	–	IC50 [5]: > 10000 nM
C=CC(=O)Nc1ccccc1Nc1n[nH]c2ccc(OCc3c(Cl)cncc3Cl)cc12	> 10000	–	–	–	–	–	–
C=CC(=O)Nc1cc(N2CCC(N(C)C)CC2)cc(F)c1Nc1n[nH]c2ccc(O[C@H](C)c3c(Cl)cncc3Cl)cc12	> 10000	> 10000	1.5	7	50	1600	IC50 [1]: > 10000 nM
C=CC(=O)Nc1cccc(F)c1Nc1n[nH]c2ccc(O[C@H](C)c3c(Cl)cncc3Cl)cc12	> 10000	> 10000	7.6	190	710	3800	–
C=CC(=O)Nc1cn(C)nc1Nc1n[nH]c2ccc(O[C@H](C)c3c(Cl)cncc3Cl)cc12	> 10000	> 10000	–	–	–	–	–
C=CC(=O)Nc1cc(N2CCC(N3CCN(C)CC3)CC2)cc(F)c1Nc1n[nH]c2ccc(O[C@H](C)c3c(Cl)cncc3Cl)cc12	> 10000	> 10000	1.7	10	47	1580	IC50 [1]: > 10000 nM
C=CC(=O)Nc1ccccc1Nc1n[nH]c2ccc(OC(C)c3c(Cl)cccc3Cl)cc12 (stereo unspecified)	> 10000	> 10000	–	–	–	–	IC50 [5]: > 10000 nM
C=CC(=O)Nc1cc(N2CCOCC2)ccc1Nc1n[nH]c2ccc(O[C@H](C)c3c(Cl)cncc3Cl)cc12	> 10000	> 10000	15	750	730	5310	–
C=CC(=O)Nc1cc(N2CCOCC2)cc(F)c1Nc1n[nH]c2ccc(O[C@H](C)c3c(Cl)cncc3Cl)cc12	> 10000	> 10000	9.5	64	220	3760	–
C=CC(=O)Nc1ccc(OC)cc1Nc1n[nH]c2ccc(O[C@H](C)c3c(Cl)cncc3Cl)cc12	> 10000	> 10000	1990	15200	30200	12500	IC50 [5]: > 10000 nM
C=CC(=O)Nc1cc(N2CCN(S(C)(=O)=O)CC2)cc(F)c1Nc1c[nH]c2ccc(O[C@H](C)c3c(Cl)cncc3Cl)cc12	> 10000	> 10000	6.5	33	110	2760	IC50 [1]: > 10000 nM
C=CC(=O)Nc1ccccc1Nc1n[nH]c2cc(-c3c(Cl)c(OC)cc(OC)c3Cl)ccc12	4770	–	–	–	–	–	IC50 [5]: > 10000 nM
C=CC(=O)Nc1cc(N2CCC(N3CCOCC3)CC2)cc(F)c1Nc1n[nH]c2ccc(O[C@H](C)c3c(Cl)cncc3Cl)cc12	> 10000	> 10000	3.5	34	29	2970	IC50 (BaF3 [6]): 8.1 nM; IC50 [7]: 54 nM; IC50 (Huh-7 [8]): 72 nM; IC50 (BaF3 [9]): > 1000 nM; inhibition [10]: Active; inhibition [11]: Active; inhibition [12]: Active; inhibition (BaF3 [13]): Active; Activity (Huh-7 [14]): Dde; inhibition in vivo at 20 mg/kg (Huh-7 [15]): 25.9%; inhibition in vivo at 40 mg/kg (Huh-7 [16]): 46.9%; Activity [17]: Non-Toxic; IC50 [1]: > 10000 nM; IC50 (BaF3 [18]): 4.7 nM

SMILES	IC50 [2] [nM]	IC50 [3] [nM]	IC50 (BaF3 [4]) [nM]	IC50 (MDA-MB-453) [nM]	IC50 (Hep 3B2) [nM]	IC50 (NCI-H1299) [nM]	further results
C=CC(=O)Nc1cccc(Cl)c1Nc1ncc2cc(-c3c(Cl)c(OC)cc(OC)c3Cl)ccc2n1	238	–	2.4	62	160	1070	IC50 (BaF3 [6]): > 100 nM; IC50 [7]: 194 nM; IC50 (Huh-7 [8]): 48 nM; IC50 (BaF3 [9]): > 1000 nM; IC50 (BaF3 [18]): > 100 nM
C=CC(=O)Nc1ccccc1Nc1n[nH]c2ccc(OC(C)c3c(Cl)ccc(F)c3Cl)cc12 (stereo unspecified)	> 10000	> 10000	–	–	–	–	–
C=CC(=O)Nc1cc(N2CCN(C)CC2)ccc1Nc1n[nH]c2ccc(O[C@H](C)c3c(Cl)cncc3Cl)cc12	> 10000	> 10000	6	120	290	2530	–
C=CC(=O)Nc1cc(N(C)CCOC)cc(F)c1Nc1n[nH]c2ccc(O[C@H](C)c3c(Cl)cncc3Cl)cc12	> 10000	> 10000	20	210	330	4760	–
C=CC(=O)Nc1cccc(C2CC2)c1Nc1n[nH]c2ccc(O[C@H](C)c3c(Cl)cncc3Cl)cc12	> 10000	> 10000	520	7550	15300	5170	IC50 [5]: > 10000 nM
C=CC(=O)Nc1ccccc1Nc1n[nH]c2ccc(OC(CC)c3c(Cl)cncc3Cl)cc12 (stereo unspecified)	> 10000	–	–	–	–	–	–
C=CC(=O)Nc1cccc(Cl)c1Nc1n[nH]c2ccc(O[C@H](C)c3c(Cl)cncc3Cl)cc12	> 10000	> 10000	3	570	4440	6100	–
C=CC(=O)Nc1cccc(OC)c1Nc1n[nH]c2ccc(O[C@H](C)c3c(Cl)cncc3Cl)cc12	> 10000	> 10000	3560	5190	10500	4880	–
C=CC(=O)Nc1ccccc1Nc1n[nH]c2ccc(O[C@H](C)c3c(Cl)cncc3Cl)cc12	949	–	–	–	–	–	–
CCC(=O)Nc1ccccc1Nc1n[nH]c2ccc(O[C@H](C)c3c(Cl)cncc3Cl)cc12	> 10000	> 10000	–	–	–	–	–
C=CC(=O)Nc1cc(N2CCN(C)CC2)cc(F)c1Nc1n[nH]c2ccc(O[C@H](C)c3c(Cl)cncc3Cl)cc12	> 10000	> 10000	0.9	18	18	2060	IC50 (BaF3 [6]): 3.7 nM; IC50 [7]: 28 nM; IC50 (Huh-7 [8]): 96 nM; IC50 (BaF3 [9]): > 1000 nM; IC50 [1]: > 10000 nM; IC50 (BaF3 [18]): 2.5 nM
C=CC(=O)N1CCC[C@@H](Nc2n[nH]c3ccc(O[C@H](C)c4c(Cl)cncc4Cl)cc23)C1	> 10000	> 10000	–	–	–	–	IC50 [5]: > 10000 nM
C=CC(=O)Nc1cc(N2CCC(N3CCOCC3)CC2)ccc1Nc1n[nH]c2ccc(O[C@H](C)c3c(Cl)cncc3Cl)cc12	> 10000	> 10000	0.2	110	220	3360	IC50 [1]: > 10000 nM
C=CC(=O)N1CC[C@@H](Nc2n[nH]c3ccc(O[C@H](C)c4c(Cl)cncc4Cl)cc23)C1	> 10000	> 10000	–	–	–	–	–
C=CC(=O)Nc1cccc(C)c1Nc1n[nH]c2ccc(O[C@H](C)c3c(Cl)cncc3Cl)cc12	> 10000	> 10000	2	620	2700	9120	–
